Reference: patent publication US8633226B2, “Piperidinyl derivative as a modulator of chemokine receptor activity” (Bristol-Myers Squibb Company, priority 2008, dated 2014)
Like-named read-outs stand apart in the source and are kept apart here.

Tests used:
Protein binding, rabbit = type: in vitro ADME
[1] = Electrocardiography in anesthetized rabbits; type: in vivo; conditions: male, blood, anesthetized rabbit, iv
Method: (§1) A dose-response study of test compound was conducted in anesthetized rabbits to assess the cardiac electrophysiologic profile established in the cellular ion channel assays.
(§2) Experiments were performed in propofol-fentanyl anesthetized closed-chest male rabbits. A body surface electrocardiogram (ECG) and an intra-cardiac His-bundle electrogram were continuously monitored and recorded during the studies, using a PoNeMah system and a Prucka electrophysiological recording system, respectively. Test compound was prepared on the day of study in a vehicle of PEG400:ethanol:water (1:1:1) at a dosing concentration of 30 mg/mL. Test compound (n=3) or vehicle (n=3) was given intravenously over 5 minutes via an infusion pump at incremental doses of 3, 10 and 30 mg/kg. The interval between doses was 10 minutes, allowing for a 5-minute test agent infusion and a 5-minute rest period. Blood was sampled at baseline (pre-drug infusion) and immediately at the end of each infusion. For the 30 mg/kg dose, additional blood samples were taken at 10, 20 and 30 minutes after the end of infusion.
(§3) PR interval, QRS duration and QT interval were averaged from a 1 minute ECG recording period at time of blood sampling. QT interval was corrected for heart rate effects using both Fridericia (QTcf) and Van der Water (QTcv) formulae. AH and HV intervals, representing A-V node conduction and His-Purkinje conduction, respectively, were assessed by manual measurements from the His-bundle electrogram. Data were expressed as percent change from pre-drug baseline (mean±SEM) for PR, QRS, AH and HV intervals as well as delta change from the pre-drug infusion baseline (mean±SEM) for QTc intervals. Changes of ≧10% in PR, QRS, and AH intervals, and 20% in HV interval, as well as >10 ms in QTc interval are considered significant based on experience with the model.

anesthetized rabbits = assay: Electrocardiography in anesthetized rabbits; type: in vivo; conditions: anesthetized rabbit; for Cmax: Free drug at QT effect dose / Cmax: Free drug at NOEL dose: iv
Method: as §1, §2, §3

[2] = molecular target: human cardiac L-type Ca channel (α1C) and its β subunit (Homo sapiens (Human), UniProt Q13936); assay: L-type calcium channel whole-cell patch-clamp assay; type: cell-based; conditions: HEK-293 cells, protein-free buffer
Chain of human cardiac L-type Ca channel (α1C) and its β subunit (Q13936 whole entry): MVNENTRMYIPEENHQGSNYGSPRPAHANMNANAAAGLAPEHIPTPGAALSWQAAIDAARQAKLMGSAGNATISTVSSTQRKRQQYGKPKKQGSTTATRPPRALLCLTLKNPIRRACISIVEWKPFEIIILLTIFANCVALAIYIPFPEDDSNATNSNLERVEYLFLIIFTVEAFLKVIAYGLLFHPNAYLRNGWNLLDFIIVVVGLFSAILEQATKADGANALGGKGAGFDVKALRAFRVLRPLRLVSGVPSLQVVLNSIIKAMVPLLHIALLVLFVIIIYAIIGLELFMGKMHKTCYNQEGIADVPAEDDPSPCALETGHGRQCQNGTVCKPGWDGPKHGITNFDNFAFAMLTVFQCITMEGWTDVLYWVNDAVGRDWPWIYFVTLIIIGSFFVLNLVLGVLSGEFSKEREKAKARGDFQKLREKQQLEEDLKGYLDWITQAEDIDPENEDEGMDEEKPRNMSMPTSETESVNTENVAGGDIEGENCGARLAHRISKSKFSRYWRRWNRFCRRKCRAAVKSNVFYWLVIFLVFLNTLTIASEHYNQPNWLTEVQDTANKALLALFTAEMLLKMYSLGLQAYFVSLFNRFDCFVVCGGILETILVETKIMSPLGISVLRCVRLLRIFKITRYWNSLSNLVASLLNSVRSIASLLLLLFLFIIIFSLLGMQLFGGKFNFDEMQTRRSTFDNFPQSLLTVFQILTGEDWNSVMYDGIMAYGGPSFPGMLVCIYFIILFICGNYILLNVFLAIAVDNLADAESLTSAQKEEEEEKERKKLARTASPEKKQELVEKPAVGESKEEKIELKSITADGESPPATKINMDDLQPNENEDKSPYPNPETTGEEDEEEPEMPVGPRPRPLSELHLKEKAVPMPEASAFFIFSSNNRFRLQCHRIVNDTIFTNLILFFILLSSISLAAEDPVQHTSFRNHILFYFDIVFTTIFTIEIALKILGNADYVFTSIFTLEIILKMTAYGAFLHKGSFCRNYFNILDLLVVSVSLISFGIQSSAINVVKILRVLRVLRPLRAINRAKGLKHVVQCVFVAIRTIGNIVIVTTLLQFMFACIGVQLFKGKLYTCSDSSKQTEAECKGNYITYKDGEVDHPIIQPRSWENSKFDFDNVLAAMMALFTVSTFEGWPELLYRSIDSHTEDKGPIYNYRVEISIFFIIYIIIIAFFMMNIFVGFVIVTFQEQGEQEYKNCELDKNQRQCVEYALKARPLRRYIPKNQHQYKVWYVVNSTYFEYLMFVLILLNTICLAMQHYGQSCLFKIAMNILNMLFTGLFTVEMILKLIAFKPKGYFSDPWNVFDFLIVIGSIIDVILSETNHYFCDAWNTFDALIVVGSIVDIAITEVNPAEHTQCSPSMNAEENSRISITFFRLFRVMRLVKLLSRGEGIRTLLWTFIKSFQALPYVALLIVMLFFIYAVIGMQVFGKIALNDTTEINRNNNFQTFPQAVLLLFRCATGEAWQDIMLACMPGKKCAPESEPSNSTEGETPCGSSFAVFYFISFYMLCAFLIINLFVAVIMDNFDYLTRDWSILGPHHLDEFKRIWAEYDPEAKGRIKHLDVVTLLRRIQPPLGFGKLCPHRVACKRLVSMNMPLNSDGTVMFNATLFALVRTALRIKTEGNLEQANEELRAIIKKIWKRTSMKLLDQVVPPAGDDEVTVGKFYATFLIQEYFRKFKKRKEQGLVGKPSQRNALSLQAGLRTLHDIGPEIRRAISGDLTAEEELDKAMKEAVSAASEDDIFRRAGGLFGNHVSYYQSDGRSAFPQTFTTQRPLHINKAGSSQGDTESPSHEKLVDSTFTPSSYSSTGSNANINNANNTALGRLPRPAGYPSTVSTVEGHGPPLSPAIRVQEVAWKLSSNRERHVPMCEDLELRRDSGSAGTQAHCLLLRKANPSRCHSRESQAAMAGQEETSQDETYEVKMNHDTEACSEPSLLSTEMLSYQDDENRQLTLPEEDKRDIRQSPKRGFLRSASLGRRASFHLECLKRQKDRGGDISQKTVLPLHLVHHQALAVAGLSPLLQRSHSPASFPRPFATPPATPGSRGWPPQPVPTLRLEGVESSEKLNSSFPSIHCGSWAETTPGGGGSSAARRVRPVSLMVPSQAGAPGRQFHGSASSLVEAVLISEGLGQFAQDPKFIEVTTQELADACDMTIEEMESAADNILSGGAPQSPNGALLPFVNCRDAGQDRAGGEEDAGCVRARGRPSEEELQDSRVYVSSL
Chain of human cardiac L-type Ca channel (α1C) and its β subunit (Q08289 whole entry partner): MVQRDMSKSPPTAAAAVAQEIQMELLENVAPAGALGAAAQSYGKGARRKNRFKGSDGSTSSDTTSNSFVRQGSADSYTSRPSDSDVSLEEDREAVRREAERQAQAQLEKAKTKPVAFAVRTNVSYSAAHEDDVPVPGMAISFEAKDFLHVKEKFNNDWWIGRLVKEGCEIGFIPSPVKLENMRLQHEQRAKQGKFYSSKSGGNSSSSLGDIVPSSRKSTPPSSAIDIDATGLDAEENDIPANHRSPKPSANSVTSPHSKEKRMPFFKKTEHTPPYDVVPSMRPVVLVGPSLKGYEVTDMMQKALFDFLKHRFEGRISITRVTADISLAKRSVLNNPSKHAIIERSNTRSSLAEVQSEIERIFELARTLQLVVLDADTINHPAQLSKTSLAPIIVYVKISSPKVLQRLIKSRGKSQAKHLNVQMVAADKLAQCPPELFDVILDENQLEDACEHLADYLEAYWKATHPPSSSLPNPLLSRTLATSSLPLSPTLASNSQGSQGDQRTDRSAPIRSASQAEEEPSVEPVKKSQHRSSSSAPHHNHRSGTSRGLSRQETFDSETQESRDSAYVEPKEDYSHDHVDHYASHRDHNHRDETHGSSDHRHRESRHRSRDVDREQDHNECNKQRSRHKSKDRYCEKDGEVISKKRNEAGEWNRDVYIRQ
Method: In addition to the potential for interaction with the L-type calcium channel, whole-cell patch-clamp was used to directly measure inward calcium currents in HEK-293 cells stably expressing the cloned human cardiac L-type Ca channel (α1C) and its β subunit. Effects of compounds were calculated by measuring inhibition of peak current. Experiments were carried out using an aqueous buffer at pH 7.4 and at room temperature. There is no protein in the buffer and drug concentrations reported are nominal free drug levels.

Protein binding, human = type: in vitro ADME
hERG = hERG (Homo sapiens (Human), UniProt Q12809); assay: hERG patch clamp assay; type: cell-based; conditions: HEK-293 cells stably expressing hERG, pH 7.4, protein-free buffer, read-out: hERG, % inh @ 30 μM
Chain of hERG (Q12809 whole entry): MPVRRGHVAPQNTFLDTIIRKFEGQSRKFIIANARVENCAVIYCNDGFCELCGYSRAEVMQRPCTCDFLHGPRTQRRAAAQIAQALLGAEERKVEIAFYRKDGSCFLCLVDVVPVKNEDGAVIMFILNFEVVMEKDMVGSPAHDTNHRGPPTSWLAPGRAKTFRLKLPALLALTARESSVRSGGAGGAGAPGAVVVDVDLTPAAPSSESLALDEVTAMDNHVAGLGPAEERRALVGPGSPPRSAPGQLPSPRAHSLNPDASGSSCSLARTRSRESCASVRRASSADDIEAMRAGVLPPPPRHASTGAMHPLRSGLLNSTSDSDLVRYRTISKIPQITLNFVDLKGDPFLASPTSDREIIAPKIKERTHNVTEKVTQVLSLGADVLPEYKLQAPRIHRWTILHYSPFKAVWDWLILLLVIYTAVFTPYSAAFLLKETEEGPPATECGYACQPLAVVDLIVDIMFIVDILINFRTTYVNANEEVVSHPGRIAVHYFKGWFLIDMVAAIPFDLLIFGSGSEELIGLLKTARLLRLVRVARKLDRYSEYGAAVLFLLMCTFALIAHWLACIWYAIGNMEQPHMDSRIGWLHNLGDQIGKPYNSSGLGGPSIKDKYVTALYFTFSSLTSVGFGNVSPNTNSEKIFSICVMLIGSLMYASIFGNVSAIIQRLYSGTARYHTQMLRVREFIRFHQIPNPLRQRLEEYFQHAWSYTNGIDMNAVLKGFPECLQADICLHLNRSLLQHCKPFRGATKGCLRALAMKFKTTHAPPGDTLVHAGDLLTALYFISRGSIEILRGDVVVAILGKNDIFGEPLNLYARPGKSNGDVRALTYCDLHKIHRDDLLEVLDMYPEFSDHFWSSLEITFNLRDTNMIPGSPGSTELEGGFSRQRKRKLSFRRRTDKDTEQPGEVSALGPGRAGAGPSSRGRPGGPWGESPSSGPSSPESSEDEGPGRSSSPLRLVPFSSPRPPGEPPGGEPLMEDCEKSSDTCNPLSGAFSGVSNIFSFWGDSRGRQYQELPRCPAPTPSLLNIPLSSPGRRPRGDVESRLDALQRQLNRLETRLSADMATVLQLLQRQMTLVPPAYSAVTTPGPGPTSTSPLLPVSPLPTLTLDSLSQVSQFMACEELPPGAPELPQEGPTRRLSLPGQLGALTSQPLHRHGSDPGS
Method: Whole-cell patch-clamp was used to directly measure hERG tail currents in HEK-293 cells stably expressing the cloned hERG potassium channel α subunit. Effects of compounds were calculated by measuring inhibition of peak tail current. Experiments were carried out using an aqueous buffer with pH 7.4 at room temperature. There was no protein in the assay buffer. The test concentrations reported are nominal free drug levels.

[3] = molecular target: human cardiac sodium channel SCN5A (Homo sapiens (Human), UniProt Q14524); assay: Sodium channel whole-cell patch-clamp assay; type: cell-based; conditions: HEK-293 cells expressing human cardiac sodium channel SCN5A, pH 7.4, protein-free buffer, read-out: Na, % inh
Method: Whole-cell patch-clamp was used to directly measure inward sodium currents in HEK-293 cells expressing the human cardiac sodium channel, SCN5A. After reach steady-state effect in the presence of drug, rate-dependence was assessed by stimulation at frequencies of 1 Hz and 4 Hz. Experiments were carried out using an aqueous buffer at pH 7.4 and at room temperature. There is no protein in the buffer and drug concentrations reported are nominal free drug levels. Test article was evaluated up to 10 μM (protein-free buffer). Rate-dependence of inhibition was assessed by stimulation at frequencies of 1 Hz and 4 Hz.

Human CCR1 = Human CCR1 (Homo sapiens (Human), UniProt P32246); assay: Human CCR1 THP-1 binding assay; conditions: [125I]-MIP-1α competition, THP-1 cells
Chain of Human CCR1 (P32246 whole entry): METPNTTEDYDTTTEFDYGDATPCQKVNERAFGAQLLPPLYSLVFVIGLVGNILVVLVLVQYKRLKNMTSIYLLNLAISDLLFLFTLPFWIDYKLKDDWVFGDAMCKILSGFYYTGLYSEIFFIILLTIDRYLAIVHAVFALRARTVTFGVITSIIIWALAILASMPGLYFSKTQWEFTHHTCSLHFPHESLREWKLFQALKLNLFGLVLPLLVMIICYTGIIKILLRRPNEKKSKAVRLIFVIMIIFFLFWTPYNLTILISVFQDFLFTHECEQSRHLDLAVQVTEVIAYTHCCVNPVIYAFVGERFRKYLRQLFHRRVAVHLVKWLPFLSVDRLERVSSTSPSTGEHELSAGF
Method: For radioligand competition studies, a final concentration of 1×10^5 THP-1 monocytic leukemia cells are combined with 100 μg of LS WGA PS beads (Amersham, Cat.#: RPNQ 0260) in 40 μL of assay buffer (RPMI 1640 without phenol red, 50 mM HEPES, 5 mM MgCl2, 1 mM CaCl2, 0.1% BSA). The THP-1 cell/bead mixture was added to each well of a 384-well assay plate (PerkinElmer, Cat. #:6007899) containing test compound in 3-fold serial dilution, with final concentrations ranging from 8 μM to 0.14 nM. A final concentration of 0.1 nM [^125I]-MIP-1α (PerkinElmer, Cat. #NEX298) in 20 μL assay buffer was added to the reaction. Unlabeled MIP-1α was added in excess to some wells to determine non-specific binding. Sealed assay plates were incubated at room temperature for 12 h then analyzed by LEADseeker™.
The competition data of the test compound over a range of concentrations is plotted as percentage inhibition of radioligand specifically bound in the absence of test compound (percent of total signal). After correcting for non-specific binding, IC50 values are determined. The IC50 value is defined as the concentration of test compound needed to reduce [^125I]-MIP-1α specific binding by 50% and is calculated using the four parameter logistic equation to fit the normalized data. The Ki values are determined by application of the Cheng-Prusoff equation to the IC50 values, where Ki=IC50/(1+ligand concentration/Kd). The Kd of [^125I]-MIP-1α in THP-1 cells is 0.1 nM. Each experiment was run in duplicate.

Human PXR = Human PXR (Homo sapiens (Human), UniProt O75469); assay: PXR transactivation assay; type: cell-based; conditions: HepG2 cells, CYP3A-Luc reporter; reported as EC60
Chain of Human PXR (O75469 whole entry): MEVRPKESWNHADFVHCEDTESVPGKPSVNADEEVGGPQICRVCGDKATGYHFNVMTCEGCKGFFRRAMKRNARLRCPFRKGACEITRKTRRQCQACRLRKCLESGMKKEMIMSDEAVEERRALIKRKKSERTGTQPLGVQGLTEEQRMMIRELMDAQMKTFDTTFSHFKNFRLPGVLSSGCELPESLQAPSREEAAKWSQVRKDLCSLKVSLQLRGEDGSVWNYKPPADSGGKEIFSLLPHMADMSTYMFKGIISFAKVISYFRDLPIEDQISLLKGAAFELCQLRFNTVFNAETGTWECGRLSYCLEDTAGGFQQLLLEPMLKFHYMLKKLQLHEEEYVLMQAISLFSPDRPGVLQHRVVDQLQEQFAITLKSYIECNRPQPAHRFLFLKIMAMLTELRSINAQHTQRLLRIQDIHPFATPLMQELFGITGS
From the text: The cell culture medium used is DMEM. […] Charcoal/dextran treated fetal bovine serum (FBS) was purchased from Hyclone (Logan, Utah). HepG2 cells were obtained from ATCC (Manassas, Va.). Human PXR-pcDNA3 and luciferase reporter containing CYP3A4 promoter, CYP3A-Luc, were generated at Bristol-Myers Squibb. White tissue culture (TC)-surface 384-well plates were purchased from Perkin Elmer (Boston, Mass.). Luciferase substrate (Steady-Glo) was purchased from Promega (Madison, Wis.). Control compounds rifampicin, mifepristone, and sulfinpyrazone were purchased from Sigma (St. Louis, Mo.).
Culture of HepG2 cells is performed in T175 flasks using DMEM containing 10% FBS. The transfection mixture contains 1 μg/mL of PXR-pcDNA3 plasmid DNA, 20 μg/ml of Cyp3A-Lue plasmid DNA, 90 μL/mL of Lipofectamine 2000, and serum-free medium. After incubating at room temperature for 20 minutes, the transfection mixture (1 ml per flask) is applied to the cells in fresh medium (20 mL per flask), and flasks incubated at 37° C. (5% CO2) overnight.
The flasks are then tapped vigorously to break up cell aggregates. After the addition of 8 mL of DMEM containing 5% charcoal/dextran-treated FBS, the entire mixture is transferred to conical tubes. Cells are then centrifuged at 1000 rpm for 5 minutes. Cell pellets are resuspended to a final count of ˜7×10^6 cells/ml, in freezing media (DMEM containing 20% serum and 10% DMSO). The cell suspension is aliquoted into 15-mL polypropylene tubes, 5 mL per tube. Cells are slowly frozen by placing in a Styrofoam-insulated container at −80° C. overnight. Vials are transferred to an Ultracold (−140° C.) freezer after 24 hours for long-term storage.
Vials of cryopreserved cells are thawed rapidly in a warm water bath for five minutes. Cells are pooled and diluted to 50 mL in a 50-mL conical vial. The thawed cells are centrifuged at 1500 rpm for 5 minutes to collect the cells and the supernatant discarded. Cells are then resuspended in fresh Media II (DMEM containing 5% charcoal/dextran-treated FBS, 1% Penicillin/Streptomycin, 100 μM Non-essential Amino Acids, 1 mM Sodium Pyruvate, and 2 mM L-Glutamine), counted using the Guava Cell Counter, and diluted to 1.6×10^5 cells/ml in the same media.
Fifty microliters of cell mixture is added to wells in columns 1-23 of white tissue-culture treated 384-well plates containing 0.25 μL of test compound dissolved in 100% DMSO. Fifty microliters of Media II is added to wells in column 24. The plates are incubated at 37° C. (5% CO2) for 24 hours, then 5 μL of Alamar Blue reagent (Trek Diagnostics, Cat #00-100) is added to each well. Plates are then incubated an additional two hours at 37° C., 5% CO2 and then one hour at room temperature. […] After the fluorescence is measured, 25 μL of luciferase substrate (Steady-Glo, Promega) is added to each well. The plates are incubated for fifteen minutes at room temperature, after which the luminescence is read on a PheraStar (BMG Labtech) plate reader.
Rifampicin (10 μM), a well-known agonist of PXR, is included in each plate as an internal standard and positive control. The data is then expressed as percent control (% CTRL), where the control signal is the signal from the 10 μM rifampicin and the blank signal is that from the DMSO vehicle. % CTRL=((Compound signal−Blank signal)/(Control signal−Blank signal))*100
The EC50 is defined as the concentration corresponding to half of the maximal response derived from the fitted 20-point curve as determined using a four-parameter logistic regression model. Additionally, compounds may also be reported as EC20 or EC60.

[4] = In vitro metabolism assay, human liver microsomes, Assay Conditions A; type: in vitro ADME; conditions: 0.5 μM compound, 10 minutes, 37° C.
Method: Test compound is received as a 3.5 mM stock solution in 100 percent DMSO. Compound is diluted to create a 50 μM acetonitrile (ACN) solution containing 1.4% DMSO, which is then used as a 100× stock for incubation with microsomes. Each compound is tested in duplicate separately in each of three species in the Metabolic Stability-Human, Rat, and Mouse assay suite or as individual species in the Metabolic Stability-Dog or Metabolic Stability-Monkey suites. Compound, NADPH and liver microsome solutions are combined for incubation in three steps:
152 μL of liver microsome suspension, protein concentration of 1.1 mg/mL in 100 mM NaPi, pH 7.4, 6.6 mM MgCl2 buffer, is pre-warmed at 37° C.
• 1) 1.7 μL of 50 μM compound (98.6% ACN, 1.4% DMSO) is added to the same tube and pre-incubated at 37° C. for 5 minutes. • 2) The reaction is initiated by the addition of 17 μL of pre-warmed 10 mM NADPH solution in 100 mM NaPi, pH 7.4. • 3) Reaction components are mixed well, and 75 μL are immediately transferred into 150 μl quench/stop solution (zero-time point, T0). Reactions are incubated at 37° C. for 10 minutes and then an additional 75 μL aliquot is transferred into 150 μL quench solution. Acetonitrile containing 100 μM DMN (a UV standard for injection quality control), is used as the quench solution to terminate metabolic reactions. • 4) Quenched mixtures are centrifuged at 1500 rpm (˜500×g) in an Allegra X-12 centrifuge, SX4750 rotor (Beckman Coulter Inc., Fullerton, Calif.) for fifteen minutes to pellet denatured microsomes. A volume of 90 μL of supernatant extract, containing the mixture of parent compound and its metabolites, is then transferred to a separate 96-well plate for UV-LC/MS-MS analysis to determine the percent of parent compound that is remaining in the mixture. • 5)

Row | Compound | fraction unbound (Protein binding, rabbit) | Cmax ([1]; 10 mg/kg, read-out: Cmax: Total drug at QT effect dose) [µM] | QT effect Dose (anesthetized rabbits; iv infusion) [mg/kg] | QTcf, delta (anesthetized rabbits; iv infusion, at QT effect dose 10 mg/kg) [ms] | Cmax: Free drug at QT effect dose (anesthetized rabbits; 10 mg/kg) [µM] | Cmax: Free drug at NOEL dose (anesthetized rabbits; NOEL not identified (<10 mg/kg)) [µM] | Ca, % inh ([2]; 30 μM) [% @ 30 μM] | fraction unbound (Protein binding, human) | inhibition at 30 µM (hERG) [%] | inhibition at 10 µM [3] [%] | Ki (Human CCR1) [nM] | PXR EC60 (Human PXR) [nM] | Human Liver Microsomal Metabolism % remaining (Assay Conditions A) [4] | Cmax ([1]; 30 mg/kg, read-out: Cmax: Total drug at QT effect dose) [µM] | Cmax ([1]; NOEL dose 10 mg/kg, read-out: Cmax: Total drug at NOEL dose) [µM] | NOEL dose (No Observed Effect Level) (anesthetized rabbits; iv infusion) [mg/kg] | QTcf, delta (anesthetized rabbits; iv infusion, at QT effect dose 30 mg/kg) [ms] | Cmax: Free drug at QT effect dose (anesthetized rabbits; 30 mg/kg) [µM] | Cmax: Free drug at NOEL dose (anesthetized rabbits; NOEL dose 10 mg/kg) [µM] | Ca, % inh ([2]; 10 μM) [% @ 10 μM]
1 | CC(C)[C@@H](NC(=O)[C@@H]1CC[C@@H](O)C1)C(=O)N1CC[C@](O)(c2ccc(Cl)cc2)C(C)(C)C1 [EX# 572] | 0.13 | 48.6 | 10 | 22 | 6.3 | < 6.3 | 19 | 0.16 | 32 | 25 | 1.5 | – | – | – | – | – | – | – | – | –
2 | CC[C@@H](C)NC(=O)N[C@@H](C(=O)N1CC[C@](O)(c2ccc(Cl)cc2)C(C)(C)C1)C(C)C [#897] | – | – | – | – | – | – | – | – | – | – | 2.1 | >50000 | 59% (A) | – | – | – | – | – | – | –
3 | CC(C)NC(=O)N[C@@H](C(=O)N1CC[C@](O)(c2ccc(Cl)cc2)C(C)(C)C1)C(C)C [#850] | – | – | – | – | – | – | – | – | – | – | 0.5 | 10200 | 99% (A) | – | – | – | – | – | – | –
4 | CC(C)[C@@H](NC(=O)c1cccc(S(N)(=O)=O)c1)C(=O)N1CC[C@](O)(c2ccc(Cl)cc2)C(C)(C)C1 [EX# 491] | 0.06 | – | 30 | – | – | – | – | 0.05 | 27 | 13 | 2.1 | – | – | 138 | 77 | 10 | 17 | 5.5 | 3.1 | 22
